A short description of series [1]: DPPH radical scavenging assay of the compounds. Here is the method:
(§1) To determine the antioxidant capacity of ferulic acid and its derivatives the DPPH method was used. The analyses were performed using the Hitachi UV-Vis Spectrophotometer U-5100 at the wavelength λ = 517 nm. Trolox (6-hydroxy-2,5,7,8-tetramethylchroman-2-carboxylic acid) was used as a reference substance. The antioxidant activity was expressed as %RSA and mmol Trolox dm^−3. […]. Blank samples without antioxidant were prepared in the same way. The tubes were wrapped in aluminum foil and were sealed with a stopper and then incubated for 10 min at room temperature. After this time, spectrophotometric measurements were carried out in triplicate. For determination of antioxidant activity of the acceptor fluid after 24 h of permeation and solutions obtained by extraction of the skin obtained after penetration study, 0.15 mL samples of each solutions were separately added to 2.85 mL of DPPH solution and spectrophotometric measurements were performed. The antioxidant activity was expressed as mmol Trolox·dm^−3.
In general terms: Loss of DPPH colour is used to gauge radical scavenging.

Series [2] can be described thus: Skin permeation in Franz diffusion cells. Type of series: in vitro ADME, pig. The note with it: 24 h, 10 mg as FA applied. Here is the method:
In the experiment, abdominal porcine skin coming from the local slaughterhouse was used. Pig skin was chosen because of its similar permeability to human skin [34, 35]. The fresh abdominal porcine skin was washed several times in PBS buffer pH 7.4. The skin of 0.5 mm in thickness was dermatomed and divided into 2 cm × 2 cm pieces. The skin samples were wrapped in aluminum foil and stored at −20 °C until use, not longer than 3 months. According to Badran et al., this storage time at this temperature is safe to keep skin barrier properties. Immediately before the experiment, the skin samples were slowly thawed at room temperature for 30 min and then were hydrated by PBS pH 7.4 [37, 38, 39, 40]. Such prepared skin was mounted on donor chamber. Only the undamaged skin pieces with an even thickness were chosen for experiments. The integrity of the skin was checked by impedance measurement using an LCRmeter4080 (Conrad Electronic, Hirschau, Germany), operated in parallel mode at an alternating frequency of 120 Hz (error at kΩ values < 0.5%). The tips of measuring probes were immersed in the donor and acceptor chamber containing PBS (pH 7.4), as described previously. Only skin samples of impedance > 3 kΩ were applied as such impedance is similar to the electrical resistance of human skin [42].
The concentration of FA and its derivatives in the acceptor fluid and in the fluid obtained by skin extraction after permeation experiment was assessed using liquid chromatography system (Knauer, Berlin, Germany) consisting of a model 2600 UV detector, Smartline model 1050 pump and Smartline model 3950 autosampler. HPLC was controlled by ClarityChrom 2009 software. The detector was operated at 280 nm. The separations were performed on 125 mm × 4 mm ID chromatographic column filled with Hyperisil ODS (C18), particle size 5 µm, in isocratic mode. The mobile phase consisted of acetonitrile, 1% acetic acid, and MeOH (47/47/6 v/v/v) and was pumped at flow rate of 1 mL min^−1. The column temperature was set at 25 °C, and the injection volume was 20 µL.
(§2) The permeation experiments were performed using Franz diffusion cells (Phoenix DB-6, ABL&E-JASCO, Wien, Austria). The diffusion was 1 cm^2. The volume of the acceptor chamber was 8 mL. This chamber was filled with PBS solution (pH 7.4). During experiment, a constant temperature of 37.0 ± 0.5 °C was maintained in each diffusion unit. The acceptor chamber content was stirred with a magnetic stirring bar at the same speed for all cells. The prepared pig skin was mounted on each donor chamber. As previously mentioned, only undamaged skin pieces with an even thickness were chosen for experiments. Thereafter, the hydrogel or emulsion vehicle/preparation in 1 g portion was put on the skin in donor cells. For comparison, 1 mL ethanolic solution containing either FA or its derivatives was applied to another donor chamber. The amount of the FA and its derivatives applied on the skin expressed as the mass of ferulic acid was 0.01 g and was the same for each carrier. The penetration experiments were carried out for 24 h. The samples were collected after 1 h, 2 h, 3 h, 4 h, 5 h, 6 h, 8 h, and 24 h. Aliquots of the acceptor fluid (0.5 mL) were withdrawn and to each acceptor chamber the same volume of fresh PBS solution was added. The FA and its derivatives’ concentrations in the acceptor fluid were measured by HPLC method (Section 2.6.2). The cumulative mass (µg·cm^−2) and penetration rate (µg·cm^−2·h^−1) were calculated. The acceptor fluid collected after 24 h of permeation was also measured for antioxidant activity and total polyphenol content (as described in Section 2.5.1 and Section 2.5.2).

Series [3] in a line: DPPH antioxidant activity of acceptor fluid after 24 h permeation. Set-up: species or system pig. The note with it: after 24 h penetration. As to the method:
as §1, §2

The subject of series [4] is Murine fibroblasts (L929). The experiment in a line: Cytotoxicity, PrestoBlue resazurin-based cell viability assay. The note with it: 2.0 mM, 24 h, PrestoBlue, normalized to control. (In general: The colour change of resazurin is a common sign of viable cells or microbes.)
Procedure: The cell biocompatibility was evaluated using a PrestoBlue HS Cell Viability Reagent (Thermo Fisher Scientific, MA USA) based on the reduction of the resazurin to highly fluorescent resorufin, of which the amount is directly correlated to the number of living cells. […] The cells without tested compounds were used as control. The interaction of tested compounds without cells and Prestoblue Reagent (blank wells) was excluded. After 24 h of treatment, optical microscopy imaging of L929 cells was performed using Smart Fluorescent Cell Analyzer Microscope JuLi (Seoul, Korea). Next, the PrestoBlue reagent (10 μL) was added to each well and incubated for 30 min. The fluorescence was measured using a spectrophotometric microplate reader (Infinite 200 Pro, Tecan, Männedorf, Switzerland) at ex/em: 560/594 nm. The readings were acquired from at least three independent experiments (each conducted in triplicate) and normalized to the control (100% viability).
The nature of series [5]: DPPH antioxidant activity of solution obtained after skin extraction. Set-up: species or system pig. The note with it: after 24 h penetration. As to the method: as §1
(§3) The accumulation of the FA and its derivatives in the skin after 24 h permeation process through the skin were determined using a modification of the methods described by Janus et al. and Taokaew et al.. After 24 h of permeation experiment, the skin samples were removed from the Franz diffusion cell, washed three times with 0.5% sodium lauryl sulfate solution and dried at room temperature. Next, after cutting out the diffusion area of each skin sample, the samples were immersed in 2 mL of absolute ethanol and continuously stirred at 300 rpm at room temperature for 24 h. The samples were then centrifuged, and clear solutions were collected and analyzed by HPLC method for the determination of FA and its derivatives. The accumulation of the active substance in the skin was calculated by dividing the amount of the drug remaining in the skin by a mass of skin sample and was expressed in mass active substance per mass of the skin (µg g^−1). For solution obtained after skin extraction, the antioxidant activity and total polyphenol content were also determined (as described in Section 2.5.1 and Section 2.5.2).

Series [6] can be described thus: n-octanol/water partition coefficient by shake flask method. Format: physicochemical. As to the method: The n-octanol/water partition coefficient (log PO/W) was determined for ferulic acid and its derivatives by shake flask method. n-Octanol saturated with water and water saturated with n-octanol were prepared at 25 °C, 24 h prior to their use in the experiments. Then, a sample of 10 mg of compound was weighed with the accuracy of 0.01 mg in a 16 cm^3 screwed vial and dissolved in 5 cm^3 of n-octanol. Next, 5 cm^3 of water was added to the vial. The resulting two-phase mixture was kept in water bath shaker at 25 °C for 2 h and was strongly shaken to reach the partition equilibrium of the compound between the phases. Then the mixture was left unshaken for 30 min and 1.0 cm^3 of water phase was carefully taken out to centrifuge tube. The sample was next centrifuged for 10 min at 7500 rpm at 25 °C to ensure the most precise phase separation. The concentration of compound in water phase was then determined using HPLC method. The partition coefficient, log PO/W was calculated according to the formula: logPO/W=logC0V0−CWVW/CWVW where: C0—initial concentration of the compound in n-octanol, calculated based on the weighed mass of compound, mg·cm^−^3; V0—volume of n-octanol, cm^3; CW—concentration of the compound in water after partition equilibrium, mg·cm^−^3; VW—volume of water, cm^3.

A short description of series [7]: Accumulation in the skin after 24 h permeation. Format: in vitro ADME, pig. The note with it: 24 h penetration, ethanol solution. As to the method: as §3
Series [8] in a line: Thermogravimetric (TG) analysis, thermal stability. The note with it: air atmosphere, 10 °C·min^−1. Format: physicochemical. As to the method:
Samples of 2–5 mg, loaded in aluminium crucibles, were heated from 30 °C to 600 °C at the heating rate of 10 °C·min^−1, in the air atmosphere (25 mL·min^−1) with nitrogen flow (10 mL·min^−1) as the purge gas.

The mark [9] stands for this setting: molar ratio antioxidant:DPPH 0.1, 10 min.
[10] abbreviates: molar ratio antioxidant:DPPH 1.0, 10 min.
Setting [11] is: molar ratio antioxidant:DPPH 2.0, 10 min.

“And” between values parts separate entries of the source, which are not always exact repeats. Identical values can stand only once.

Take `CCCOC(=O)[C@@H]1CCCN1.COc1cc(/C=C/C(=O)O)ccc1O` [PPr[FA], L-proline propyl ester ferulate]: the “Antioxidant activity %RSA” value in series [1] (setting [9]) was 19.3 ± 0.001 %RSA and 19.3 ± 0.001 a %RSA; in series [1] (setting [10]), 79.6 ± 0.001 b %RSA; in series [1] (setting [11]), 87.7 ± 0.001 %RSA and 87.7 ± 0.001 b %RSA. Besides, the “Antioxidant activity, Trolox equivalents” value in series [1] (setting [9]) is 0.115 ± 0.001 mmol Trolox dm^−3 and 0.115 ± 0.001 a mmol Trolox dm^−3; in series [1] (setting [10]) it was 0.697 ± 0.001 b mmol Trolox dm^−3; in series [1] (setting [11]), 0.775 ± 0.001 mmol Trolox dm^−3 and 0.775 ± 0.001 b mmol Trolox dm^−3. Further, the “Cumulative Permeation Mass” value was 128.80 ± 19.86 µg FA·cm^−2 and 128.80 ± 19.86 a µg FA·cm^−2 in series [2] (from emulsion); 396.86 ± 42.13 µg FA·cm^−2 and 396.86 ± 42.13 b µg FA·cm^−2 in series [2] (from hydrogel); 427.00 ± 4.674 µg FA·cm^−2 and 427.00 ± 4.67 b µg FA·cm^−2 in series [2] (from solution in 70% (v/v) ethanol). The “DPPH antioxidant activity of the acceptor fluid” value in series [3] (emulsion) is 0.061 ± 0.007 mmol Trolox dm^−3 and 0.061 ± 0.007 a mmol Trolox dm^−3; in series [3] (ethanol solution), 0.094 ± 0.002 a mmol Trolox dm^−3; in series [3] (hydrogel), 0.075 ± 0.012 mmol Trolox dm^−3 and 0.075 ± 0.012 a mmol Trolox dm^−3. Besides, the L929 viability in series [4] worked out at 78.56 ± 2.73%. In addition, the “DPPH antioxidant activity of the solution obtained after skin extraction” value was determined as 0.198 ± 0.006 a mmol Trolox dm^−3 in series [5] (emulsion), 0.259 ± 0.007 a mmol Trolox dm^−3 in series [5] (ethanol solution) and 0.351 ± 0.036 ab mmol Trolox dm^−3 in series [5] (hydrogel). The “Share of compound partitioned to n-octanol” value in series [6] (from log PO/W) stood at 74%. Moreover, in series [6] (n-octanol/water, shake flask, 25 °C), the “log PO/W” value was determined as 0.447 ± 0.022. The “Accumulation in the skin compared to pure FA” value in series [7] is recorded as “accumulated in a significantly smaller amount compared to pure FA”. Also, the “Td onset, the onset of decomposition” value in series [8] (TG) is 122.8 °C. Further, in series [8] (TG/DTG), the “Td max, temperature of the fastest mass loss of the sample” value was 148.7 °C.

The values are drawn from article PMC9861623, “New Ferulic Acid and Amino Acid Derivatives with Increased Cosmeceutical and Pharmaceutical Potential” (Pharmaceutics, 2022).
